Data reported in patent US7834019B2, “Substituted pyrazolo[3,4-d]pyrimidinone derivatives” (Banyu Pharmaceutical Co., Ltd., priority 2006, dated 2010).

Assays:
[1] = system: Human colon cancer cells (WiDr); assay: Checkpoint escape effect in WiDr cells + gemcitabine (phosphorylated histone H3-positive cells); assay type: cell-based; details: gemcitabine 100 nM for 24 hours, then test compound with nocodazole for 8 hours
Excerpt: Pharmaceutical Text 3 (Method of Determining Drug Potency in Cells (Checkpoint-Removing Effect))
Fetal bovine serum (FBS) was obtained from Morgate; DMEM was from Invitrogen; gemcitabine was from Nippon Eli Lilly; nocodazole and 4′,6-diamidino-2-phenylindole were from Sigma; rabbit anti-phosphorylated histone H3 antibody was from Upstate; and fluorescence-labeled (Alexa Fluor 488) anti-rabbit IgG antibody was from Molecular Probe.
Human colon cancer cells (WiDr) were obtained from American Type Culture Collection (ATCC).
The cells were suspended in DMEM containing 10% FBS, and the cell suspension was applied to a poly-D-lysine-coated 96-well plastic plate (bought from Becton Dickinson) in an amount of 2000 cells/100 μL/well, in which the cells were incubated overnight in 5% CO2-95% air at 37° C. […] Next, this was washed with PBS, and a solution containing 4′,6-diamidino-2-phenylindole that had been diluted with 1% BSA/PBS to have a concentration 10 μg/mL and a fluorescence-labeled (Alexa Fluor 488) anti-rabbit IgG antibody that had been diluted 250-fold was added to it in an amount 50 μL/well, and reacted in a dark place at room temperature for 60 minutes. Finally, this was washed with PBS, and its fluorescence intensity was determined to calculate the ratio of the phosphorylated histone H3-positive cells (cells that had been in a cell division cycle through removal of checkpoint). […]

[2] = system: Human colon cancer cells WiDr; assay: Tumor growth-inhibitory effect, WiDr tumor implanted subcutaneously in nude rats; assay type: in vivo, F344/N Jcl-mu nude rats; details: compound alone 0.75 mg/kg/hr, continuous intravenous injection for 8 hours
Experimental: Pharmaceutical Test 4 (Tumor Growth-Inhibitory Effect)
Human colon cancer cells WiDr (gotten from ATCC) were implanted into the subcutaneous area of the back of F344/N Jcl-mu nude rats. Eight days after the implantation, gemcitabine (50 mg/kg, Gemzar injection, Eli-Lilly) was intravenously administered to them; and after 24 hours, a test compound was dissolved in a solvent (5% glucose) and given to them through continuous intravenous injection for 8 hours. The tumor volume (0.5×(major diameter)×(minor diameter)^2) was determined on day 0, 3, 6, 10 and 13. Day 0 means the day on which gemcitabine was administered. The relative tumor volume is a relative value, as calculated on the basis of the tumor volume of 1 on day 0. The tumor growth percentage (% T/C) was obtained according to the following formula:
When the tumor volume change from day 0 in the group subjected to test compound administration is more than 0 (>0): % T/C=[(tumor volume change in the test compounds on day 3, 6, 10, 13)/(tumor volume change in the control on day 3, 6, 10, 13)]×100. When the tumor volume change from day 0 in the group subjected to test compound administration is less than 0 (<0): % T/C=[(tumor volume change in the test compounds on day 3, 6, 10, 13)/(tumor volume […])]×100.

[3] = system: Human non-small-cell lung cancer cells (NCI-H1299); assay: Radiation (X-ray) sensitizing effect, DNA fragmentation (subG1, FACS) in NCI-H1299 cells; assay type: cell-based
Excerpt: Pharmaceutical Test 5 (Method of Determining Drug Potency with Cells (Radiation (X-Ray) Sensitizing Effect))
Fetal bovine serum (FBS) was gotten from Morgate; RPMI 1640 medium and 0.25% trypsin EDTA were from Invitrogen; cycle test plus DNA reagent kit was from Becton Dickinson; and nylon net filter was from Millipore.
Human non-small-cell lung cancer cells (NCI-H1299) were gotten from ATCC.
NCI-H1299 cells were suspended in 10% FBS-added RPMI 1640 medium, and the cell suspension was applied to a 6-well Nunclondelta-processed plastic plate bought from Nunc, in an amount of 100,000 cell/2 ml/well, and incubated overnight in 5% CO2-95% air at 37° C. Using Softex's M-150WE, the cells were irradiated with 5000 R X-rays, and then further incubated in 5% CO2-95% air at 37° C. for 16 hours. A test compound was stepwise diluted with DMSO, and applied to a plate with the X-ray-processed cells sowed thereon, in an amount of 2 μL. This was incubated in 5% CO2-95% air at 37° C. for 8 hours, and then the culture was partly taken out. 0.25% trypsin was added to the cells remaining on the plate, in an amount of 600 μL, and statically kept at room temperature to prepare a single cell suspension. […] Using Becton Dickinson's FACS Calibur, the DNA amount in each cell was quantitatively determined according to a FACS process, and the ratio of the cells having caused DNA fragmentation was determined.

For C=CCn1c(=O)c2cnc(Nc3ccc(N4CCN(C)CC4)cc3)nc2n1-c1cccc(C(C)(C)O)n1 [Example 53, 2-allyl-1-[6-(1-hydroxy-1-methylethyl)pyridin-2-yl]-6-{[4-(4-methylpiperazin-1-yl)phenyl]amino}-1,2-dihydro-3H-pyrazolo[3,4-d]pyrimidin-3-one], which EC50 [1] is on record?
Its EC50 is 210 nM.

And the “% T/C day 3” value ([2]; day 3)?
Its value is 86%.

And the “% T/C day 6” value ([2]; day 6)?
The value was 74%.

And the “% T/C day 10” value ([2]; day 10)?
The value was 81%.

And the “% T/C day 13” value ([2]; day 13)?
The value was 89%.

What about the “DNA Fragmentation-Inducing Effect (H1299) (subG1, %)” value ([3]; X-ray (5000 R, 16 hours before) + compound for 8 hours) of the same compound?
The value was 54.8%.

What about the “DNA Fragmentation-Inducing Effect (H1299) (subG1, %)” value ([3]; compound alone, without X-ray, 8 hours) of the same compound?
The value was 3.9%.
